Experimental data published in patent US20240148664A1, “LIPID AND COMPOSITION” (SOGO PHARMACEUTICAL CO., LTD., priority 2021, published 2024).
Entries after “also recorded” stand apart in the source; their conditions may differ.

Assays:
[1] = system: HT1080-EGFP (human/fibrosarcoma) cells; assay: Evaluation of toxicity: LDH assay; type: cell-based; conditions: lipid nanoparticle containing siRNA; absorbance relative to control cells without lipid nanoparticle set at 1.00
Experimental: A. Provision of Cells • (i) A liquid medium (DMEM/Ham's F12, FBS+, P/S+) (FBS: fetal bovine serum, P/S: antibiotic) was taken out from a refrigerator and temperature-controlled in an incubator set at 37° C. • (ii) A cryotube containing the cells was taken out from a −80° C. freezer and thawed at once in an incubator set at 37° C. • (iii) A stock solution of the thawed cells was collected in a capped test tube. • (iv) The tube containing the cells was washed with the liquid medium, and the wash was also collected in the test tube. • (v) The tube was subjected to a centrifuge to precipitate the cells. • (vi) The supernatant was aspirated, and the liquid medium was added and gently tapped to disperse the cells. • (vii) A small amount of the cells-dispersed liquid medium was collected, and the number of cells was observed and counted under a microscope. • (viii) The cells were seeded in a 24-well plate such that the number of cells was 2×10^4 cells per well. For the plate for an LDH assay described later, the cells were seeded in a 96-well plate such that the number of cells was 4×10^3 cells per well. • (ix) The 24-well plate or the 96-well plate was placed in an incubator, and the cells were cultured for 24 hours under conditions of 37° C. and 5% CO2.
The introduction of lipid nanoparticles into cells for an LDH assay described later was carried out as follows. • (i) A 96-well plate was taken out from an incubator. • (ii) The liquid medium supernatant in the 96-well plate was aspirated and washed with phosphate buffered saline (PBS). • (iii) 160 μL of a liquid medium containing 10% FBS (FBS+/P/S+) was added to the washed 96-well plate. In addition, 40 μL of an LNP solution having an adjusted concentration was added. • (iv) The 96-well plate was placed in the incubator, and the cells were cultured for 24 hours under conditions of 37° C. and 5% CO2.
For Examples 1 to 9, a CCK-8 assay or an LDH assay was carried out to measure the metabolic activity of viable cells and relatively quantify the number of surviving cells to evaluate the toxicity of lipid nanoparticles.
An LDH assay was carried out by using a viable cell counting kit (DOJINDO LABORATORIES, Cytotoxicity LDH Assay Kit-WST) as follows. • (i) 20 μL of a lysis buffer was added to each of positive control wells and incubated at 37° C. for 30 minutes in an incubator. • (ii) 100 μL of the supernatant was taken from each well and transferred to a 96-well plate for measurement. • (iii) 100 μL of the reagent mixture attached to the kit was added to all the wells, and a color reaction was carried out for 30 minutes at room temperature with exclusion of light. • (iv) 50 μL of the stop solution reagent attached to the kit was added to all the wells. • (v) The 96-well plate was measured under conditions of a measurement wavelength of 490 nm and a target wavelength of 630 nm with a plate reader (manufactured by TECAN, Infinite M200) to calculate the absorbance. The absorbance was calculated with the absorbance of control cells to which no lipid nanoparticle was added set at 1.00. When the obtained value was 0.50 or less, a rating of double-circle (excellent) was given, when the obtained value was more than 0.50 and 1.0 or less, a rating of circle (good) was given, when the obtained value was more than 1.0 and less than 6.0, a rating of triangle (fair) was given, and when the obtained value was 6.0 or more, a rating of X-mark (poor) was given.

[2] = system: HEK293T cells and NIH3T3 cells; assay: Evaluation of toxicity (CellTiter-Fluor Cell Viability Assay, CTF); type: cell-based; conditions: lipid nanoparticle containing mRNA; number of surviving cells relative to cells without lipid nanoparticle set at 1; one rating per lipid, printed on the HEK293T line
Experimental: For lipids (Ia), (Ib), and (Ie) of Examples 1, 2, and 5, a cell experiment was carried out by using HEK293T cells and NIH3T3 cells in order to evaluate lipid nanoparticles encapsulating an mRNA. By transfecting the cells with lipid nanoparticles and measuring the amount of a predetermined protein produced, the performance of the lipid nanoparticles used can be evaluated. Hereinafter, the procedure of the cell experiment will be shown.
A. Seeding of Cells • (i) A liquid medium (DMEM High glucose, FBS+, P/S+) was temperature-controlled in an incubator set at 37° C. • (ii) A cryotube containing cells was taken out from a −80° C. freezer and thawed at once in the incubator set at 37° C. • (iii) A test tube was subjected to a centrifuge to precipitate the cells. • (iv) The supernatant was aspirated, and the liquid medium was added and gently tapped to disperse the cells. • (v) A small amount of the cells-dispersed liquid medium was collected, and the number of cells was observed and counted under a microscope. • (vi) The cells were seeded in three 24-well black plates such that the number of cells was 1×10^4 cells per well. The 24-well black plates were placed in an incubator, and the cells were cultured for 24 hours under conditions of 37° C. and 5% CO2. […]
D. Evaluation of Toxicity (CellTiter-Fluor (Registered Trademark) Cell Viability Assay) • (i) The CellTiter-Fluor (registered trademark) Cell Viability (CTF) Assay Reagent was completely thawed in a 37° C. water bath. • (ii) GF-AFC Substrate was uniformly mixed by using a vortex mixer. • (iii) The required amounts of Buffer and GF-AFC Substrate attached to the CTF Assay Reagent (Kit) were mixed at a mixing ratio of 10 mL:10 μL. • (iv) 100 μL per well of the mixed CTF Reagent mixture was added to a 24-well black plate containing the cells cultured in B. (v) above, and the plate was quickly shielded from light with aluminum foil, and then shaken on a plate shaker for 30 seconds. • (v) The plate was placed in an incubator, […], and the cells were cultured for 30 minutes under conditions of 37° C. and 5% CO2. • (vi) The fluorescence intensity was measured with a plate reader (excitation wavelength of 380 nm, fluorescence wavelength of 505 nm). Based on the obtained measurement results, the number of surviving cells was calculated with the fluorescence intensity of cells to which no lipid nanoparticle was added set at 1. […]

Structure (SMILES)	LDH Assay [1]	CTF Assay [2]
CCCCCCCC/C=C\CCCCCCCCC(CCCCCCC/C=C\CCCCCCCC)OC(=O)C(CC(=O)O)NC(=N)N (stereo not shown) [Comparative Example 2, 3-guanidino-4-(((9Z,27Z)-hexatriaconta-9,27-dien-18-yl)oxy)-4-oxobutanoic acid, reference compound]	⊚ (When the obtained value was 0.50 or less, a rating of double-circle (excellent) was given)	–
CCCCCCCC/C=C\CCCCCCCCC(CCCCCCC/C=C\CCCCCCCC)OC(=O)C(CCC(=O)O)NC(=O)C(N)CCCNC(=N)N (stereo not shown) [Example 2, 4-(2-amino-5-guanidinopentanamido)-5-(((9Z,27Z)-hexatriaconta-9,27-dien-18-yl)oxy)-5-oxopentanoic acid]	⊚ (When the obtained value was 0.50 or less, a rating of double-circle (excellent) was given)	low cytotoxicity; also recorded: ⊚ (When the number of surviving cells was more than 0.80 and 1.00 or less, a rating of double-circle (excellent) was given)
CCCCCCCC/C=C\CCCCCCCCC(CCCCCCC/C=C\CCCCCCCC)OC(=O)C(CO)NC(=O)C(N)CCCNC(=N)N [Example 4, (9Z,27Z)-hexatriaconta-9,27-dien-18-yl (2S)-2-((S)-2-amino-5-guanidinopentanamido)-3-hydroxypropionate]	Δ (when the obtained value was more than 1.0 and less than 6.0, a rating of triangle (fair) was given)	–
CCCCCCCC/C=C\CCCCCCCCC(CCCCCCC/C=C\CCCCCCCC)OC(=O)C(CCC(=O)O)NC(=N)N (stereo not shown) [Comparative Example 3, 4-guanidino-5-(((9Z,27Z)-hexatriaconta-9,27-dien-18-yl)oxy)-5-oxopentanoic acid, reference compound]	Δ (when the obtained value was more than 1.0 and less than 6.0, a rating of triangle (fair) was given)	–
CCCCCCCC/C=C\CCCCCCCCC(CCCCCCC/C=C\CCCCCCCC)OC(=O)C(NC(=O)C(N)CCCNC(=N)N)C(C)O [Example 5, (9Z,27Z)-hexatriaconta-9,27-dien-18-yl (2S)-2-((S)-2-amino-5-guanidinopentanamido)-3-hydroxybutanoate]	⊚ (When the obtained value was 0.50 or less, a rating of double-circle (excellent) was given)	low cytotoxicity; also recorded: ⊚ (When the number of surviving cells was more than 0.80 and 1.00 or less, a rating of double-circle (excellent) was given)
CCCCCCCC/C=C\CCCCCCCCC(CCCCCCC/C=C\CCCCCCCC)OC(=O)[C@H](CCSC)NC(=O)[C@@H](N)CCCNC(=N)N (stereo partly shown) [Example 6, (9Z,27Z)-hexatriaconta-9,27-dien-18-yl arginylmethioninate]	◯ (when the obtained value was more than 0.50 and 1.0 or less, a rating of circle (good) was given)	–
CCCCCCCC/C=C\CCCCCCCCC(CCCCCCC/C=C\CCCCCCCC)OC(=O)C(CC(=O)O)NC(=O)C(N)CCCNC(=N)N (stereo not shown) [Example 1, 3-(2-amino-5-guanidinopentanamido)-4-(((9Z,27Z)-hexatriaconta-9,27-dien-18-yl)oxy)-4-oxobutanoic acid]	⊚ (When the obtained value was 0.50 or less, a rating of double-circle (excellent) was given)	low cytotoxicity; also recorded: ⊚ (When the number of surviving cells was more than 0.80 and 1.00 or less, a rating of double-circle (excellent) was given)
